Holding throughout (experiment): MIC, in vitro antibacterial activity (standard strains)
The test system of assay [1] is Bacillus subtilis PCI 219. The class given is cell-based. The following applies: Bacillus subtilis, PCI219; 10^6 cells/ml; Gram +; read-out: MIC.
Assay [2] has as its system S. aureus IID 670 (Terajima). The class given is cell-based, Staphylococcus aureus. Conditions: Staphylococcus aureus, IID670; 10^6 cells/ml; Gram +; read-out: MIC.
The test system of assay [3] is E. faecalis IID 682. The class given is cell-based. The following applies: Enterococcus faecalis, IID682; 10^6 cells/ml; Gram +; read-out: MIC.
The subject of assay [4] is E. coli ATCC 10536. The class given is cell-based, Escherichia coli. The following applies: Escherichia coli, ATCC10536; 10^6 cells/ml; Gram -; read-out: MIC.
Assay [5] has as its system Morganella morganii IID 602. The class given is cell-based. The following applies: Morganella morganii, IID602; 10^6 cells/ml; Gram -; read-out: MIC.
For assay [6], the system named is Citrobacter freundii IID 976. The class given is cell-based. The following applies: Citrobacter freundii, IID976.
For assay [7], the system named is Serratia marcescens IID 618. The class given is cell-based. Conditions: Serratia marcescens, IID618; 10^6 cells/ml; Gram -; read-out: MIC.
The test system of assay [8] is Salmonella enteritidis IID 604. The class given is cell-based. Conditions: Salmonella enterica; 10^6 cells/ml; Gram -; read-out: MIC.
The test system of assay [9] is P. aeruginosa IFO 12689. The class given is cell-based, Pseudomonas aeruginosa. The following applies: Pseudomonas aeruginosa, IFO12689; 10^6 cells/ml; Gram -; read-out: MIC.
Assay [10] deals with P. aeruginosa IID 1210. The class given is cell-based, Pseudomonas aeruginosa. The following applies: Pseudomonas aeruginosa, IID1210; 10^6 cells/ml; Gram -; read-out: MIC.
For assay [11], the system named is P. cepacia GIFU 518. The class given is cell-based. The following applies: Burkholderia cepacia, GIFU518.
Assay [12] relates to B. distasonis 8503. The class given is cell-based. The following applies: Parabacteroides distasonis, 8503; 10^6 cells/ml; Gram -; read-out: MIC.
For assay [13], the system named is B. thetaiotaomicron (0661). The class given is cell-based. Conditions: Bacteroides thetaiotaomicron; 10^6 cells/ml; Gram -; read-out: MIC.
The subject of assay [14] is B. vulgatus KYA 29327. The class given is cell-based. Conditions: Phocaeicola vulgatus, KYA29327; 10^6 cells/ml; Gram -; read-out: MIC.
In assay [15] the test system is Fusobacterium mortiferum 4249. The class given is cell-based. Conditions: Fusobacterium mortiferum, 4249; 10^6 cells/ml; Gram -; read-out: MIC.
Assay [16] has as its system Eubacterium lentum GAI 5242. The class given is cell-based. Conditions: Eggerthella lenta, GAI5242; 10^6 cells/ml; Gram +; read-out: MIC.
For assay [17], the system named is Peptostreptococcus anaerobius KYA 27337. The class given is cell-based. Conditions: Peptostreptococcus anaerobius, KYA27337; 10^6 cells/ml; Gram +; read-out: MIC.
The mark [18] stands for this setting: 10^6 cells/ml, Gram -, read-out: MIC.

The record followed here is patent US4753953A, “Pyridonecarboxylic acid derivatives and antibacterial pharmaceutical compositions thereof” (priority 1985, dated 1988).

Values after ≈ are worked out from the molar mass of the structure shown. Read-outs that look alike come from different tables or passages of the source.

With `C[C@H]1CN(c2c(F)cc3c(=O)c(C(=O)O)cn(CCF)c3c2F)C[C@H]1N` (relative stereo) [Example 25, 7-(cis-b 3-Amino-4-methyl-1-pyrrolidinyl)-6,8-difluoro-1-(2-fluoroethyl)-1,4-dihydro-4-oxo-3-quinolinecarboxylic acid], the minimum inhibitory concentration (MIC) in [1] is 0.1 µg/mL (≈ 0.271 µM); in [2], 0.39 µg/mL (≈ 1.06 µM); in assay [3], 0.78 µg/mL (≈ 2.11 µM); in assay [4] it was 0.05 µg/mL (≈ 0.135 µM); in assay [5] it was 0.1 µg/mL (≈ 0.271 µM); in assay [6] (setting [18]), 0.1 µg/mL (≈ 0.271 µM). In addition, the MIC in [7] is 0.1 µg/mL (≈ 0.271 µM); in [8], 0.1 µg/mL (≈ 0.271 µM); in assay [9], 1.56 µg/mL (≈ 4.22 µM); in assay [10], 6.25 µg/mL (≈ 16.9 µM); in assay [11] it was 1.56 µg/mL (≈ 4.22 µM); in assay [12] it was 6.25 µg/mL (≈ 16.9 µM). For the same molecule, the minimal inhibitory concentration (MIC) in assay [13] was 6.25 µg/mL (≈ 16.9 µM); in assay [14], 6.25 µg/mL (≈ 16.9 µM); in assay [15], 3.13 µg/mL (≈ 8.47 µM); in assay [16] it was 1.56 µg/mL (≈ 4.22 µM); in assay [17], 3.13 µg/mL (≈ 8.47 µM).
Take `CCNCC1CN(c2c(F)cc3c(=O)c(C(=O)O)cn(C4CC4)c3c2Cl)CC1C` (centres unmarked) [Example 14, 8-Chloro-1-cyclopropyl-7-(3-ethylaminomethyl-4-methyl-1-pyrrolidinyl)-6-fluoro-1,4-dihydro-4-oxo-3-quinolinecarboxylic acid]: the MIC in [1] was 0.0125 µg/mL (≈ 0.0296 µM); in assay [2] it was 0.0125 µg/mL (≈ 0.0296 µM); in [3], 0.05 µg/mL (≈ 0.119 µM); in [4], 0.025 µg/mL (≈ 0.0593 µM); in [5], 0.2 µg/mL (≈ 0.474 µM); in assay [6] (setting [18]) it was 0.1 µg/mL (≈ 0.237 µM). The minimal inhibitory concentration (MIC) was found to be 0.2 µg/mL (≈ 0.474 µM) in assay [7]; 0.2 µg/mL (≈ 0.474 µM) in assay [8]; 3.13 µg/mL (≈ 7.42 µM) in [9]; 3.13 µg/mL (≈ 7.42 µM) in [10]; 0.78 µg/mL (≈ 1.85 µM) in assay [11]; 0.39 µg/mL (≈ 0.924 µM) in assay [12]. In addition, the minimal inhibitory concentration (MIC) in [13] was 0.2 µg/mL (≈ 0.474 µM); in [14] it was no more than 0.05 µg/mL; in assay [15], 0.2 µg/mL (≈ 0.474 µM); in assay [16] it was 0.2 µg/mL (≈ 0.474 µM); in [17], no more than 0.05 µg/mL.
Regarding `CCn1cc(C(=O)O)c(=O)c2cc(F)c(N3C[C@@H](N)[C@@H](C)C3)c(F)c21` (relative stereo) [Example 22, 7-(cis-3-Amino-4-methyl-1-pyrrolidinyl)-1-ethyl-6,8-difluoro-1,4-dihydro-4-oxo-3-quinolinecarboxylic acid], the minimum inhibitory concentration (MIC) stood at 0.05 µg/mL (≈ 0.142 µM) in assay [1]; 0.2 µg/mL (≈ 0.569 µM) in [2]; 0.78 µg/mL (≈ 2.22 µM) in [3]; 0.05 µg/mL (≈ 0.142 µM) in assay [4]; 0.2 µg/mL (≈ 0.569 µM) in assay [5]; 0.05 µg/mL (≈ 0.142 µM) in [6] (setting [18]). The minimum inhibitory concentration (MIC) was 0.1 µg/mL (≈ 0.285 µM) in assay [7]; 0.1 µg/mL (≈ 0.285 µM) in assay [8]; 1.56 µg/mL (≈ 4.44 µM) in assay [9]; 6.25 µg/mL (≈ 17.8 µM) in assay [10]; 0.78 µg/mL (≈ 2.22 µM) in assay [11]; 3.13 µg/mL (≈ 8.91 µM) in assay [12]. Moreover, the MIC in assay [13] was determined as 3.13 µg/mL (≈ 8.91 µM); in [14], 3.13 µg/mL (≈ 8.91 µM); in [15], 1.56 µg/mL (≈ 4.44 µM); in assay [16], 1.56 µg/mL (≈ 4.44 µM); in assay [17], 3.13 µg/mL (≈ 8.91 µM).
As for `C[C@@H]1CN(c2c(F)cc3c(=O)c(C(=O)O)cn(C4CC4)c3c2F)C[C@H]1N` (relative stereo) [Example 18, 7-(trans-3-Amino-4-methyl-1-pyrrolidinyl)-1-cyclopropyl-6,8-difluoro-1,4-dihydro-4-oxo-3-quinolinecarboxylic acid], the MIC was found to be 0.025 µg/mL (≈ 0.0688 µM) in [1]; 0.2 µg/mL (≈ 0.55 µM) in assay [2]; 0.1 µg/mL (≈ 0.275 µM) in assay [3]; 0.05 µg/mL (≈ 0.138 µM) in assay [4]; 0.05 µg/mL (≈ 0.138 µM) in assay [5]; 0.0125 µg/mL (≈ 0.0344 µM) in [6]. The minimum inhibitory concentration (MIC) was 0.05 µg/mL (≈ 0.138 µM) in [7]; 0.025 µg/mL (≈ 0.0688 µM) in assay [8]; 0.39 µg/mL (≈ 1.07 µM) in assay [9]; 0.78 µg/mL (≈ 2.15 µM) in assay [10]; 0.1 µg/mL (≈ 0.275 µM) in assay [11]; 0.39 µg/mL (≈ 1.07 µM) in assay [12]. The MIC in assay [13] is 0.39 µg/mL (≈ 1.07 µM); in [14], 0.39 µg/mL (≈ 1.07 µM); in [15] it was 0.2 µg/mL (≈ 0.55 µM); in assay [16] it was 0.1 µg/mL (≈ 0.275 µM); in assay [17], 0.2 µg/mL (≈ 0.55 µM).
Turning to `CC1CN(c2c(F)cc3c(=O)c(C(=O)O)cn(C4CC4)c3c2Cl)CC1CN` (centres unmarked) [Example 1, 7-(3-Aminomethyl-4-methyl-1-pyrrolidinyl)-8-chloro-1-cyclopropyl-6-fluoro-1,4-dihydro-4-oxo-3-quinolinecarboxylic acid], the minimum inhibitory concentration (MIC) in assay [1] stood at 0.0125 µg/mL (≈ 0.0317 µM); in [2] it was 0.025 µg/mL (≈ 0.0635 µM); in assay [3], 0.05 µg/mL (≈ 0.127 µM); in [4], 0.025 µg/mL (≈ 0.0635 µM); in assay [5] it was 0.1 µg/mL (≈ 0.254 µM); in assay [6] (setting [18]), 0.05 µg/mL (≈ 0.127 µM). The MIC in assay [7] turned out to be 0.1 µg/mL (≈ 0.254 µM); in [8] it was 0.05 µg/mL (≈ 0.127 µM); in [9] it was 0.78 µg/mL (≈ 1.98 µM); in assay [10], 0.78 µg/mL (≈ 1.98 µM); in assay [11] it was 0.39 µg/mL (≈ 0.99 µM); in assay [12], 0.39 µg/mL (≈ 0.99 µM). The MIC in assay [13] was 0.1 µg/mL (≈ 0.254 µM); in assay [14], 0.1 µg/mL (≈ 0.254 µM); in assay [15], no more than 0.05 µg/mL; in [16], 0.2 µg/mL (≈ 0.508 µM); in assay [17], no more than 0.05 µg/mL.
For the molecule `CNCC1CN(c2c(F)cc3c(=O)c(C(=O)O)cn(C4CC4)c3c2F)CC1C` (centres unmarked) [Example 13, 1-Cyclopropyl-6,8-difluoro-1,4-dihydro-7-(3-methylaminomethyl-4-methyl-1-pyrrolidinyl)-4-oxo-3-quinolinecarboxylic acid], the MIC in [1] amounted to 0.025 µg/mL (≈ 0.0639 µM); in assay [2], 0.05 µg/mL (≈ 0.128 µM); in [3], 0.2 µg/mL (≈ 0.511 µM); in assay [4], 0.05 µg/mL (≈ 0.128 µM); in assay [5], 0.2 µg/mL (≈ 0.511 µM); in assay [6] (setting [18]) it was 0.05 µg/mL (≈ 0.128 µM). Besides, the minimal inhibitory concentration (MIC) in [7] amounted to 0.2 µg/mL (≈ 0.511 µM); in [8], 0.1 µg/mL (≈ 0.255 µM); in [9], 3.13 µg/mL (≈ 8 µM); in assay [10], 1.56 µg/mL (≈ 3.99 µM); in [11], 0.78 µg/mL (≈ 1.99 µM); in [12], 3.13 µg/mL (≈ 8 µM). In addition, the MIC in assay [13] is 3.13 µg/mL (≈ 8 µM); in assay [14], 1.56 µg/mL (≈ 3.99 µM); in assay [15] it was 0.39 µg/mL (≈ 0.996 µM); in assay [16], 0.78 µg/mL (≈ 1.99 µM); in [17], 0.2 µg/mL (≈ 0.511 µM).
On to `CCNCC1CN(c2c(F)cc3c(=O)c(C(=O)O)cn(C4CC4)c3c2F)CC1C` (centres unmarked) [Example 15, 1-Cyclopropyl-7-(3-ethylaminomethyl-4-methyl-1-pyrrolidinyl)-6,8-difluoro-1,4-dihydro-4-oxo-3-quinolinecarboxylic acid], for which the MIC in assay [1] worked out at 0.025 µg/mL (≈ 0.0617 µM); in [2], 0.05 µg/mL (≈ 0.123 µM); in [3] it was 0.1 µg/mL (≈ 0.247 µM); in assay [4], 0.05 µg/mL (≈ 0.123 µM); in assay [5], 0.2 µg/mL (≈ 0.493 µM); in assay [6] (setting [18]), 0.1 µg/mL (≈ 0.247 µM). In addition, the minimal inhibitory concentration (MIC) in assay [7] turned out to be 0.2 µg/mL (≈ 0.493 µM); in [8] it was 0.2 µg/mL (≈ 0.493 µM); in assay [9], 3.13 µg/mL (≈ 7.72 µM); in assay [10], 3.13 µg/mL (≈ 7.72 µM); in assay [11], 0.78 µg/mL (≈ 1.92 µM); in assay [12] it was 3.13 µg/mL (≈ 7.72 µM). The minimal inhibitory concentration (MIC) worked out at 1.56 µg/mL (≈ 3.85 µM) in [13]; 0.78 µg/mL (≈ 1.92 µM) in assay [14]; 0.39 µg/mL (≈ 0.962 µM) in assay [15]; 0.39 µg/mL (≈ 0.962 µM) in assay [16]; 0.2 µg/mL (≈ 0.493 µM) in assay [17].
